Measured values: patent publication US20260365688A1, “STRAINED BICYCLONONENES” (TAGWORKS PHARMACEUTICALS B.V., priority 2022, published 2026)

Legend:
Type in all cases: physicochemical
[1] = Second-order rate constant of IEDDA reaction of TCO with tetrazine 2.1 in MeCN by UV-Vis; details: activator 2.1; in MeCN at 20 °C; second-order conditions
Experimental: (§1) The second-order rate constant of the IEDDA reaction of 3,6-dimethyl-1,2,4,5-tetrazine (2.1) or 3,6-di(pyridin-2-yl)-1,2,4,5-tetrazine (2.2) and a compound of the disclosure in MeCN at 20 °C was determined by UV-Vis spectrometry under second-order reaction conditions (n=1). A cuvette was filled with a solution of 3,6-dimethyl-1,2,4,5-tetrazine or 3,6-di(pyridin-2-yl)-1,2,4,5-tetrazine (3 mL 0.083 mM in MeCN), and equilibrated at 20 °C. Next, a solution of the compound of the disclosure (10.0 μL 25 mM in acetonitrile, 2.50×10^−7 mol) was added, and the solution was quickly homogenized and inserted in the UV spectrometer. The absorption at λ=540 nm (specific for the tetrazine moiety) was measured every second in a time course experiment. From the decay of this absorption, the conversion was calculated. The second-order rate constant k2 was determined from the slope of the curve of a plot of 1/c −1/c0 versus time.

[2] = Second-order rate constant of IEDDA reaction of TCO with tetrazine 2.2 in MeCN by UV-Vis; details: activator 2.2; in MeCN at 20 °C; second-order conditions
Experimental: as §1

[3] = Releasing activity of s-TCO derivatives on reaction with 3,6-dimethyl-1,2,4,5-tetrazine (HPLC-MS PDA); details: acetonitrile/PBS; for formation of the (pyridazine) elimination product: after 30 min
Experimental: To a stock solution of 1.7 (10 uL 17.8 mM in DMSO, 1.78×10^−7 mol) was added acetonitrile (0.2 mL), PBS (0.8 mL), and a stock solution of 3,6-dimethyl-1,2,4,5-tetrazine (7.1 uL 25 mM in DMSO, 1.78×10^−7 mol). […] ESI-MS: m/z Calc. for C18H21N3O4 343.15 Da; Obs. [M+H]^+ 344.25 Da, max=243 nm.
To a solution of 1.21 (3.75×10^−7 mol) in acetonitrile (0.2 mL) was added PBS (0.8 mL), and a stock solution of 3,6-dimethyl-1,2,4,5-tetrazine (20 uL 25 mM in DMSO, 5.0×10^−7 mol). […] ESI-MS: m/z Calc. for C18H21N3O4 343.15 Da; Obs. [M+H]^+ 344.25 Da, λmax=250 nm.
To a solution of 1.22 (3.75×10-8 mol) in acetonitrile (0.02 mL) was added PBS (0.08 mL), and a stock solution of 3,6-dimethyl-1,2,4,5-tetrazine (2 uL 25 mM in DMSO, 5.0×10-8 mol).

SMILES | Rate constants k2 [1] | Rate constants k2 [2] | disappearance of the pink color (tetrazine consumption) [3] | formation of the (pyridazine) elimination product [3]
CN(Cc1ccccc1)C(=O)O[C@H]1/C=C/C[C@@H]2[C@H](CC1)[C@@H]2C(=O)ON1C(=O)CCC1=O [Compound 1.7, 2,5-Dioxopyrrolidin-1-yl (1R,5R,8S,9S,E)-5-((benzyl(methyl)carbamoyl)oxy)bicyclo[6.1.0]non-3-ene-9-carboxylate] | 2.9 M⁻¹ s⁻¹ | 375 M⁻¹ s⁻¹ | within minutes | quantitative formation
COC(=O)[C@@H]1[C@@H]2C/C=C/[C@H](O)CC[C@@H]21 [Compound 1.6b, Methyl (1R,5R,8S,9S,E)-5-hydroxybicyclo[6.1.0]non-3-ene-9-carboxylate] | 3.3 M⁻¹ s⁻¹ | – | – | –
CN(Cc1ccccc1)C(=O)O[C@@H]1/C=C/CCC[C@@H]2[C@H](C(=O)ON3C(=O)CCC3=O)[C@@H]21 [Compound 1.21, 2,5-Dioxopyrrolidin-1-yl (1R,2R,8S,9S,E)-2-((benzyl(methyl)carbamoyl)oxy)bicyclo[6.1.0]non-3-ene-9-carboxylate] | 8.0 M⁻¹ s⁻¹ | 605 M⁻¹ s⁻¹ | within minutes | quantitative formation
O=C1O[C@@H]2C=CCCC[C@@H]3[C@H]1[C@@H]32 (stereo in doubt) [Compound 1.17b, (1R,2S,8R,11S,E)-9-Oxatricyclo[6.3.0.0^2,11]undec-6-en-10-one] | 8.7 M⁻¹ s⁻¹ | – | – | –
O=C1O[C@@H]2C=CCCC[C@@H]3[C@H]1[C@@H]32 (stereo in doubt) [Compound 1.17a, (1R,2S,8R,11S,E)-9-Oxatricyclo[6.3.0.0^2,11]undec-6-en-10-one] | 11.5 M⁻¹ s⁻¹ | 1100 M⁻¹ s⁻¹ | – | –
COC(=O)[C@H]1[C@H]2CCC/C=C/[C@@H](O)[C@H]21 [Compound 1.16b, Methyl (1R,2R,8S,9S,E)-2-hydroxybicyclo[6.1.0]non-3-ene-9-carboxylate] | 0.3 M⁻¹ s⁻¹ | – | – | –
COC(=O)[C@H]1[C@H]2CCC/C=C/[C@@H](O)[C@H]21 [Compound 1.16a, Methyl (1R,2R,8S,9S,E)-2-hydroxybicyclo[6.1.0]non-3-ene-9-carboxylate] | 7.0 M⁻¹ s⁻¹ | – | – | –
